From the supplement of paper PMC10307832

Assays:
Assay in all cases: relative viability (nuclei count vs DMSO), 5 days (fraction); higher = more cells survive
[1] = compound: COc1cc2nc(N3CCCN(C)CC3)nc(NC3CCN(Cc4ccccc4)CC3)c2cc1OC
In short: (§1)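 Viability was defined as treated-well nuclei divided by vehicle-well nuclei, with the median taken over replicate plates. Cells from lung cancer lines sat overnight at 37 °C in 1536-well plates, received five √10-spaced library-drug doses by pinning on vehicle-anchored plates, and grew 5 days without medium change before one-step fixation, permeabilisation and Hoechst staining, 4× imaging and MetaXpress nuclear counts. Only plates with control CV under 25% and at least one doubling were kept.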

AZD6482 = compound: Cc1cc([C@@H](C)Nc2ccccc2C(=O)O)c2nc(N3CCOCC3)cc(=O)n2c1 [AZD6482]
In short: as §1

[2] = compound: COc1cc2nc(N3CCCN(C)CC3)nc(NC3CCN(Cc4ccccc4)CC3)c2cc1OC + CC1(C)CCC(c2ccc(Cl)cc2)=C(CN2CCN(c3ccc(C(=O)NS(=O)(=O)c4ccc(N[C@H](CCN5CCOCC5)CSc5ccccc5)c(S(=O)(=O)C(F)(F)F)c4)cc3)CC2)C1 [Navitoclax] (partner 0.5 µM)
In short: (§2)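 Lung cancer cell lines in 1536-well plates were dosed by pin tool the day after seeding, either with one drug alone or with a fixed anchor-drug dose plus five library-drug doses (not always all listed) in √10 steps. After 5 days, cells were fixed and their nuclei stained in one step (final 0.05% Triton X-100, 1% formaldehyde, 1 ug/ml Hoechst), then counted on 4× images. Relative viability is the nuclei count in treated wells divided by that in vehicle wells. Values are medians of duplicate plates.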

AZD6482 + Phenformin = compound: Cc1cc([C@@H](C)Nc2ccccc2C(=O)O)c2nc(N3CCOCC3)cc(=O)n2c1 [AZD6482] + N=C(N)NC(=N)NCCc1ccccc1 [Phenformin] (partner 250 µM)
In short: as §2

Cell Line | relative viability ([1]; 0.2 µM) | relative viability ([1]; 0.6325 µM) | relative viability ([1]; 2 µM) | relative viability ([1]; 6.325 µM) | relative viability (AZD6482; 0.08 µM) | relative viability (AZD6482; 0.253 µM) | relative viability (AZD6482; 0.8 µM) | relative viability (AZD6482; 2.53 µM) | relative viability (AZD6482; 8 µM) | relative viability ([2]; first compound 0.2 µM) | relative viability ([2]; first compound 0.6325 µM) | relative viability ([2]; first compound 2 µM) | relative viability ([2]; first compound 6.325 µM) | relative viability (AZD6482 + Phenformin; first compound 0.08 µM) | relative viability (AZD6482 + Phenformin; first compound 0.253 µM) | relative viability (AZD6482 + Phenformin; first compound 0.8 µM) | relative viability (AZD6482 + Phenformin; first compound 2.53 µM) | relative viability (AZD6482 + Phenformin; first compound 8 µM)
NCI-H2170 | 1.02 | 0.963 | 1 | 0.975 | 0.909 | 0.897 | 0.944 | 0.851 | 0.927 | 0.707 | 0.577 | 0.494 | 0.582 | 0.418 | 0.432 | 0.421 | 0.386 | 0.36
NCI-H2347 | 1.02 | 0.975 | 1.04 | 1 | 0.627 | 0.785 | 0.805 | 0.617 | 0.664 | 0.764 | 0.771 | 0.873 | 0.693 | 0.198 | 0.277 | 0.235 | 0.243 | 0.221
NCI-H1993 | 0.879 | 1.18 | 0.912 | 0.905 | 0.68 | 0.792 | 0.631 | 0.557 | 0.676 | 0.919 | 0.97 | 1.04 | 0.991 | 0.49 | 0.488 | 0.471 | 0.524 | 0.449
NCI-H322M | 0.856 | 1.09 | 0.9 | 0.854 | 0.847 | 0.822 | 0.838 | 0.495 | 0.633 | 1.12 | 1.12 | 1.19 | 1.21 | 0.705 | 0.673 | 0.712 | 0.414 | 0.537
NCI-H838 | 0.992 | 1.03 | 1.08 | 0.92 | 0.826 | 0.95 | 0.914 | 0.538 | 0.535 | 1.17 | 1.13 | 1.27 | 1.08 | 0.459 | 0.519 | 0.497 | 0.263 | 0.397
HARA | 0.895 | 1.13 | 1.08 | 0.919 | 0.844 | 0.978 | 1.13 | 0.782 | 0.875 | 1.13 | 1.08 | 1.24 | 1.15 | 0.376 | 0.395 | 0.486 | 0.399 | 0.168
NCI-H2087 | 0.921 | 0.995 | 1.03 | 1.09 | 0.841 | 0.996 | 1.35 | 0.555 | 1.08 | 1.06 | 0.933 | 1.28 | 0.854 | 0.44 | 0.442 | 0.474 |  | 0.385
NCI-H1437 | 0.983 | 0.992 | 1.06 | 0.99 | 1.04 | 0.972 | 1.03 | 0.847 | 0.726 | 1.12 | 1.04 | 1.17 | 1.04 | 0.268 | 0.287 | 0.262 | 0.223 | 0.261
NCI-H1792 | 0.821 | 1.06 | 0.952 | 1.11 | 0.753 | 0.758 | 0.878 | 0.412 | 0.496 | 0.665 | 0.639 | 0.66 | 0.629 | 0.222 | 0.237 | 0.298 |  | 0.13
ChaGo-K-1 | 0.944 | 0.985 | 1.03 | 0.94 | 1.07 | 0.839 | 1.05 | 0.91 | 0.983 | 0.987 | 1.05 | 1.13 | 0.72 | 0.54 | 0.397 | 0.446 | 0.48 | 0.416
COR-L23 | 0.942 | 1.03 | 1.06 | 1.03 | 0.808 | 1.02 | 1.08 | 0.845 | 0.834 | 1.05 | 1.08 | 1.15 | 1.08 | 0.412 | 0.445 | 0.455 | 0.343 | 0.373
COR-L 105 | 0.868 | 1.08 | 0.793 | 0.621 | 0.825 | 0.904 | 0.874 | 0.577 | 0.801 | 0.925 | 0.749 | 0.938 | 0.486 | 0.515 | 0.443 | 0.446 | 0.409 | 0.299
LK-2 | 1 | 1.09 | 1.06 | 0.995 | 1.07 | 0.915 | 1.07 | 0.818 | 0.781 | 0.91 | 0.843 | 1.16 | 0.637 | 0.405 | 0.382 | 0.257 | 0.338 | 0.184
201T | 0.976 | 1.05 | 1.01 | 0.983 | 0.977 | 0.97 | 0.969 | 0.771 | 0.958 | 1.2 | 1.2 | 1.23 | 1.15 | 0.436 | 0.433 | 0.496 | 0.308 | 0.314
HCC-44 | 0.98 | 0.996 | 0.998 | 0.981 | 0.873 | 0.971 | 1 | 1.05 | 1.03 | 0.908 | 0.968 | 1.02 | 0.945 | 0.255 | 0.14 | 0.189 | 0.169 | 0.167
NCI-H596 | 0.969 | 1.19 | 0.964 | 0.836 | 0.844 | 0.91 | 0.92 | 0.909 | 0.929 | 1.03 | 0.851 | 0.949 | 0.821 | 0.658 | 0.576 | 0.636 | 0.691 | 0.737
H3255 | 0.915 | 0.986 | 1.1 | 0.961 | 0.996 | 0.918 | 0.979 | 0.688 | 0.835 | 0.517 | 0.59 | 0.669 | 0.544 | 0.356 | 0.333 | 0.386 | 0.343 | 0.34
